Test [1] can be described thus: Bitterness reduction in a bitter principle solution (expert panel rating). It is filed as in vivo. To be noted: for % reduction in bitterness impression / Testers positive (number of testers who could detect a masking effect) / Bitterness impression (1-10) with: 500 ppm caffeine; for Bitterness impression (1-10) with: error = 95% confidence interval. Here is the method:
To quantify the reduction in the bitterness impression, the bitterness of a 500 ppm caffeine or salicin solution and a sample containing 500 ppm of caffeine or salicin and a varying amount of the exemplary compound was determined by a group of experts (rating 0 [not bitter] to 10 [extremely bitter]). The evaluation was made as a calculation of the reduction (in %) of the bitterness impression from the average values for the ratings of the caffeine or salicin solution and the solutions containing caffeine or salicin and the exemplary compound. 2,4-Dihydroxybenzoic acid (2,4-DHB) from U.S. Pat. No. 5,643,941 was used as a comparison.

Test [2] is described as follows: Strengthening the sweetness of a sugar solution (expert panel rating). To be noted: 5% sucrose; for Sweetness impression (1-10) with: error = standard deviation. It is filed as in vivo. Here is the method: To quantify the strengthening of the sweetness impression, the sweetness of a 5% sucrose solution and a sample containing […] and an amount of the exemplary compound was determined by a group of experts (rating 0 [not sweet] to 10 [extremely sweet]). The evaluation was made as a calculation of the strengthening (in %) of the sweetness impression from the average values for the ratings of the sucrose solution and the solutions containing sucrose and the exemplary compound. Vanillin was used as a comparison as a typical aromatic substance described as sweet.

The nature of test [3]: Strengthening the sweetness of a yogurt (expert panel rating). It is filed as in vivo. Here is the method: To quantify the strengthening of the sweetness impression, the sweetness of a low-fat (0.1%) commercial yogurt (Optiwell) containing 5% sucrose and of a sample containing […] and an amount of the exemplary compound was determined by a group of experts (rating 0 [not sweet] to 10 [extremely sweet]). The evaluation was made as a calculation of the strengthening (in %) of the sweetness impression from the average values for the ratings of the yogurt containing sucrose and the yogurt containing sucrose and the exemplary compound.

For test [4] the following is noted: examined in the context of various sweeteners; cited from earlier work.
Where [5] appears, read: 200 ppm substance, 5% sucrose, low-fat yogurt.

Structures can show the parent of a compound that is named as a salt.

Consider `COc1cc(CCNC(=O)c2ccc(O)cc2O)ccc1O` [Example 6, 2,4-Dihydroxybenzoic acid-N-2-(4-hydroxy-3-methoxyphenyl)ethylamide], for which, in test [1] (100 ppm substance), the “% reduction in bitterness impression” value was 20%, p < 0.05; the “Testers positive (number of testers who could detect a masking effect)” value is reported as 9; the “Bitterness impression (1-10) with” value is 3.7 ± 0.8.

`COc1cc(C=O)ccc1O` [vanillin, Vanillin, reference compound]: in test [2] (600 ppb substance), the “% strengthening of sweetness impression” value is recorded as −3%, the “Testers positive (number of testers who could detect a strengthening effect)” value stood at 5 and the “Sweetness impression (1-10) with” value is given as 6.0 ± 1.1.

On to `COc1cc(CNC(=O)c2ccc(O)cc2O)ccc1O` [Example 1, 2,4-dihydroxybenzoic acid-N-(4-hydroxy-3-methoxybenzyl)amide], for which, in test [1] (20 ppm substance), the “% reduction in bitterness impression” value is listed as 29%, p < 0.05; the “Testers positive (number of testers who could detect a masking effect)” value is recorded as 11; the “Bitterness impression (1-10) with” value came to 4.5 ± 0.6. Besides, in test [3] (setting [5]), the “% strengthening of sweetness impression” value is reported as 26.5% and the “Testers positive (number of testers who could detect a strengthening effect)” value came out at 12. The “Sweetness impression (1-10) with” value in test [3] (200 ppm substance, 5% sucrose, low-fat yogurt, error = standard deviation) came to 5.4 ± 1.5. Also, in test [3] (yogurt containing the compound), the “descriptors of the yogurt” value is listed as “more fullness, less acidic, soft, creamy”. In addition, the “preference of the yogurt” value in test [3] (yogurt containing the compound vs yogurt with sucrose only) is recorded as “preferred”. Besides, in test [2] (100 ppm substance), the “% strengthening of sweetness impression” value worked out at 7.2%, the “Testers positive (number of testers who could detect a strengthening effect)” value is listed as 7 and the “Sweetness impression (1-10) with” value is given as 5.6 ± 1.7.

Take `COc1cc(CNC(=O)c2c(O)cc(O)cc2O)ccc1O` [Example 2, 2,4,6-Trihydroxybenzoic acid-N-(4-hydroxy-3-methoxybenzyl)amide]: in test [1] (100 ppm substance), the “% reduction in bitterness impression” value is recorded as 24%, p < 0.05; the “Testers positive (number of testers who could detect a masking effect)” value came to 8; the “Bitterness impression (1-10) with” value came to 5.1 ± 0.9.

On to `COc1cc(CNC(=O)c2ccc(O)cc2)ccc1O` [Example 4, 4-Hydroxybenzoic acid-N-(4-hydroxy-3-methoxybenzyl)amide], for which, in test [1] (100 ppm substance), the “% reduction in bitterness impression” value is given as 26%, p < 0.05; the “Testers positive (number of testers who could detect a masking effect)” value was found to be 9; the “Bitterness impression (1-10) with” value worked out at 4.5 ± 0.5.

For `COc1cc(CNC(=O)c2ccccc2O)ccc1O` [Example 3, 2-Hydroxybenzoic acid-N-(4-hydroxy-3-methoxybenzyl)amide], in test [1] (100 ppm substance), the “% reduction in bitterness impression” value is reported as 23%, p < 0.05; the “Testers positive (number of testers who could detect a masking effect)” value was determined as 12; the “Bitterness impression (1-10) with” value came to 4.1 ± 0.9.

With `O=C(O)c1ccc(O)cc1O` [2,4-DHB, 2,4-Dihydroxybenzoic acid, reference compound], in test [1] (100 ppm substance), the “% reduction in bitterness impression” value amounted to 3%, the “Testers positive (number of testers who could detect a masking effect)” value is reported as 9 and the “Bitterness impression (1-10) with” value worked out at 5.0 ± 1.0.

Take `COc1ccc(CNC(=O)c2c(O)cc(O)cc2O)cc1O` [2,4,6-trihydroxybenzoic acid-N-(3-hydroxy-4-methoxybenzyl)amide]: the taste result in test [4] is “tasteless”.

For the compound `COc1ccc(CNC(=O)c2ccc(O)cc2O)cc1O` [Example 9, 2,4-Dihydroxybenzoic acid-N-3-hydroxy-4-methoxybenzylamide, reference compound], in test [1] (100 ppm substance), the “% reduction in bitterness impression” value worked out at 11% and the “Bitterness impression (1-10) with” value is on record as 3.9 ± 0.8. Also, the “change in the bitterness impression (bitterness-masking effect)” value in test [1] (application example 1) is recorded as “No statistically significant change”.

For the compound `COc1cc(CNC(=O)c2ccc(O)cc2O)ccc1O` [Example 5, 2,4-Dihydroxybenzoic acid-N-4-hydroxy-3-methoxybenzylamide monosodium salt], in test [1] (100 ppm substance), the “% reduction in bitterness impression” value is reported as 32%, p < 0.05; the “Testers positive (number of testers who could detect a masking effect)” value is given as 13; the “Bitterness impression (1-10) with” value is 4.1 ± 1.0.

The values are drawn from US20080214675A1, “Hydroxybenzoic Acid Amides and the Use Thereof For Masking Bitter Taste” (SYMRISE GMBH & CO. KG, priority 2004, published 2008).
